This experiment addresses T1, human GnRH receptor (Homo sapiens, UniProt P30968).
T1 construct: line established by Prof; Thomas Gudermann; host or cells: CHO cells
T1 sequence (P30968 1-328): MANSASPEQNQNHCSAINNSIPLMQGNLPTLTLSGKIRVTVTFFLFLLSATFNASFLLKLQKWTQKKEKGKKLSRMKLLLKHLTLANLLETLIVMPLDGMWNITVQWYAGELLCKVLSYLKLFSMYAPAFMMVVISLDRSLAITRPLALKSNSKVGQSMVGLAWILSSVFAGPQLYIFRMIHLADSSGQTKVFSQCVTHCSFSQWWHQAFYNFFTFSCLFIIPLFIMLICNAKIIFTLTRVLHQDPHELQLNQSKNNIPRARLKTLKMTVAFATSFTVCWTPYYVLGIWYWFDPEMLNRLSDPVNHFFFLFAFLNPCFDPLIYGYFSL
The experiment is described as follows: IP-One HTRF assay (inhibition of GnRH-R activation by buserelin). It counts as cell-based. To be noted: IP-One HTRF assay with buserelin (at EC80) stimulation; CHO cells stably expressing human GnRH receptor; tested 20 µM to 1 nM; read-out: Potency IC50. An excerpt: By using homogenous time-resolved fluorescence resonance energy transfer (HTRF), the generation of one component of the GnRH-R signalling cascade can be measured. After stimulation of CHO cells stably expressing human GnRH receptor (established by Prof. Thomas Gudermann, currently University of Marburg, Germany; supplied as frozen cell aliquots by Cell Culture Services, Hamburg, Germany) with the EC80 of the GnRH agonist buserelin, Gq protein-coupled receptor signalling cascade is activated resulting in PLC-dependent cleavage of PIP2 to Inositol-1,4,5-triphosphate (IP3) and Diacylglycerol. The second messenger IP3 is degraded intracellularly to myo-inositol. Inhibition of the final degradation step from Inositol-1-phosphate (IP1) to myo-inositol by addition of lithium chloride leads to accumulation of IP1 in the cells. In cell lysates, IP1 can be detected via an antibody-based HTRF detection technology, where IP1 can displace the FRET acceptor IP1-d2 from binding by Terbium-labelled anti-IP1 antibody as donor resulting in a signal decrease. Compounds were tested for their capability of inhibiting GnRH-R activation by buserelin. For all IP-One HTRF® assays reagents of Cisbio Bioassays (IP-One Tb Jumbo kit, #62IPAPEJ; Cisbio Bioassays, Bagnols sur Cèze Cedex, France) were used.
For the assay, frozen cell aliquots were thawed and a cell suspension (3.33x10^6 cells/ml) containing IP1-d2 (dilution 1:40) was prepared and incubated at 37°C. After 1 h 3 µl of the cell suspension were added to 50 nl of a 100-fold concentrated solution of the test compound in DMSO pre-dispensed in a well of a white low-volume 384-well microtiter plate (Greiner Bio-One, Frickenhausen, Germany). The mixture was incubated for 20 min at 22°C to allow for pre-binding of the test compound to the GnRH-R. The receptor signaling cascade was stimulated by addition of 2 µl buserelin or LHRH (at EC50 or EC80) in stimulation buffer (10 mM Hepes pH 7.4, 1 mM CaCl2, 0.5 mM MgCl2, 4.2 mM KCI, 146 mM NaCl, 5.5 mM α-D-Glucose, 0.05% BSA, 125 mM LiCl (final assay concentration 50 mM) in aqua dest.). Plates were incubated for 1 h at 37°C and 5% carbon dioxide before the cells were lysed by adding 3 µl Terbium-labelled anti-IP1 antibody (1:40) diluted in Conjugate & Lysis buffer as supplied with the kit. After an incubation for 1 h at 22°C to enable complete cell lysis and antibody binding to free IP1 or IP1-d2, plates were measured in an HTRF reader, e.g. a RUBYstar, PHERAstar (both BMG Labtechnologies, Offenburg, Germany) or a Viewlux (PerkinElmer LAS, Rodgau-Jügesheim, Germany). From the fluorescence emissions at 665 nm (FRET) and at 620 nm (background signal of Terbium-antibody), the ratio (emission at 665 nm divided by emission at 620 nm) was calculated and the data were normalized (reaction without test compound = 0% inhibition; all other assay components except agonist = 100% inhibition). On the same microtiter plate, compounds were tested at 10 different concentrations in the range of 20 µM to 1 nM (20 µM, 6.7 µM, 2.2 µM, 0.74 µM, 0.25 µM, 82 nM, 27 nM, 9.2 nM, 3.1 nM and 1 nM; dilution series prepared before the assay at the level of the 100-fold conc. stock solutions by serial 1:3 dilutions in 100% DMSO) in duplicate values for each concentration. By using an in-house software, the IC50 values were calculated by a 4 parameter fit. The data reveal that the compounds of the present invention have antagonist activities on the human GnRH receptor. Within the meaning of the present invention the antagonist activity is reflected by the ability of a compound of the invention to antagonize human GnRH receptor stimulation in IP-One HTRF® assay at least three times the standard deviation over the background level.
Turning to `O=C(NCc1ncccc1Cl)c1ccc2c(c1)C1(CCC(O)(C(F)(F)F)CC1)C(C1CC1)N2S(=O)(=O)c1ccc(F)cc1` (racemic) [Example 1, N-[(3-chloropyridin-2-yl)methyl]-2'-cyclopropyl-1'-[(4-fluorophenyl)sulfonyl]-4-hydroxy-4-(trifluoromethyl)-1',2'-dihydrospiro[cyclohexane-1,3'-indole]-5'-carboxamide], the IC50 stood at 354 nM. To `O=C1CCC2(CC1)c1cc(C(=O)NCc3ccccc3Cl)ccc1N(S(=O)(=O)c1ccc(F)cc1)C2C1CC1` (racemic) [Example 3, N-(2-chlorobenzyl)-2'-cyclopropyl-1'-[(4-fluorophenyl)sulfonyl]-4-oxo-1',2'-dihydrospiro[cyclohexane-1,3'-indole]-5'-carboxamide] belongs 46.8 nM; to `COC(=O)c1cccc(NC(=O)c2ccc3c(c2)C2(CCC(O)(C(F)(F)F)CC2)C(C2CC2)N3S(=O)(=O)c2ccc(F)cc2)c1` (racemic) [Example 30, methyl 3-[({2'-cyclopropyl-1'-[(4-fluorophenyl)sulfonyl]-4-hydroxy-4-(trifluoromethyl)-1',2'-dihydrospiro[cyclohexane-1,3'-indol]-5'-yl}carbonyl)amino] benzoate], 227 nM; to `O=C(NCc1ncccc1Cl)c1ccc2c(c1)C1(CCC(O)(C(F)(F)F)CC1)C(C1CC1)N2S(=O)(=O)c1ccc(F)cc1` (single isomer, unassigned) [Example 1-2], 135 nM.

As to `O=C1CCC2(CC1)c1cc(C(=O)NCc3ccccc3Cl)ccc1N(S(=O)(=O)c1ccc(F)cc1)C2C1CC1` (single isomer, unassigned) [Example 3-1], the IC50 came out at 41.3 nM. To `O=C1CCC2(CC1)c1cc(C(=O)NCc3ccccc3Cl)ccc1N(S(=O)(=O)c1ccc(F)cc1)C2C1CC1` (single isomer, unassigned) [Example 3-2] belongs 1020 nM; to `COC(=O)c1cccc(NC(=O)c2ccc3c(c2)C2(CCC(O)(C(F)(F)F)CC2)C(C2CC2)N3S(=O)(=O)c2ccc(F)cc2)c1` (single isomer, unassigned) [Example 30-1], 142 nM. For `COC(=O)c1cccc(NC(=O)c2ccc3c(c2)C2(CCC(O)(C(F)(F)F)CC2)C(C2CC2)N3S(=O)(=O)c2ccc(F)cc2)c1` (single isomer, unassigned) [Example 30-2], the IC50 came out at 1590 nM. Consider `O=C(Nc1ccon1)c1ccc2c(c1)C1(CCC(O)(C(F)(F)F)CC1)C(C1CC1)N2S(=O)(=O)c1ccc(F)cc1` (single isomer, unassigned) [Example 56-1], for which the IC50 stood at 215 nM. For the compound `O=C(Nc1ccon1)c1ccc2c(c1)C1(CCC(O)(C(F)(F)F)CC1)C(C1CC1)N2S(=O)(=O)c1ccc(F)cc1` (single isomer, unassigned) [Example 56-2], the IC50 is 17400 nM. Then `O=C(NCc1ccccc1Cl)c1ccc2c(c1)C1(CCC(O)(C(F)(F)F)CC1)C(C1CC1)N2S(=O)(=O)c1ccc(F)cc1` (single isomer, unassigned) [Example 62-1], with 101 nM; and `O=C(NCc1ccccc1Cl)c1ccc2c(c1)C1(CCC(O)(C(F)(F)F)CC1)C(C1CC1)N2S(=O)(=O)c1ccc(F)cc1` (single isomer, unassigned) [Example 62-2], with 3280 nM. Take `O=C(NCc1ncccc1C(F)(F)F)c1ccc2c(c1)C1(CCC(O)(C(F)(F)F)CC1)C(C1CC1)N2S(=O)(=O)c1ccc(F)cc1` (single isomer, unassigned) [Example 65-2]: the IC50 is 116 nM.

With `O=C(NCc1ncccc1C(F)(F)F)c1ccc2c(c1)C1(CCC(O)(C(F)(F)F)CC1)C(C1CC1)N2S(=O)(=O)c1cccc(C(=O)N2CCC2)c1` (single isomer, unassigned) [Example 66-2], the IC50 was 612 nM. Take `O=C(NCc1ccccc1Cl)c1ccc2c(c1)C1(CCC(O)CC1)C(C1CC1)N2S(=O)(=O)c1ccc(F)cc1` (stereo not shown) [Example 2, N-(2-chlorobenzyl)-2'-cyclopropyl-1'-[(4-fluorophenyl)sulfonyl]-4-hydroxy-1',2'-dihydrospiro[cyclohexane-1,3'-indole]-5'-carboxamide]: the IC50 was 60.7 nM. To `CC1(O)CCC2(CC1)c1cc(C(=O)NCc3ccccc3Cl)ccc1N(S(=O)(=O)c1ccc(F)cc1)C2C1CC1` (stereo not shown) [Example 4, N-(2-chlorobenzyl)-2'-cyclopropyl-1'-[(4-fluorophenyl)sulfonyl]-4-hydroxy-4-methyl-1',2'-dihydrospiro[cyclohexane-1,3'-indole]-5'-carboxamide] belongs 73.3 nM; to `O=C(NCc1ccccc1Cl)c1ccc2c(c1)C1(CCC(=NO)CC1)C(C1CC1)N2S(=O)(=O)c1ccc(F)cc1` (stereo not shown) [Example 5, N-(2-chlorobenzyl)-2'-cyclopropyl-1'-[(4-fluorophenyl)sulfonyl]-4-(hydroxyimino)-1',2'-dihydrospiro[cyclohexane-1,3'-indole]-5'-carboxamide], 65.7 nM; to `O=C(NCc1ccccc1Cl)c1ccc2c(c1)C1(CCC(F)(F)CC1)C(C1CC1)N2S(=O)(=O)c1ccc(F)cc1` (stereo not shown) [Example 6, N-(2-chlorobenzyl)-2'-cyclopropyl-4,4-difluoro-1'-[(4-fluorophenyl)sulfonyl]-1',2'-dihydrospiro[cyclohexane-1,3'-indole]-5'-carboxamide], 489 nM. Then `O=C(NCc1ncc(C(F)(F)F)cc1Cl)c1ccc2c(c1)C1(CCC(O)CC1)C(C1CC1)N2S(=O)(=O)c1ccc(F)cc1` (stereo not shown) [Example 7, N-{[3-chloro-5-(trifluoromethyl)pyridin-2-yl]methyl}-2'-cyclopropyl-1'-[(4-fluorophenyl)sulfonyl]-4-hydroxy-1',2'-dihydrospiro[cyclohexane-1,3'-indole]-5'-carboxamide], with 52.1 nM; and `O=C1CCC2(CC1)c1cc(C(=O)NCc3ncc(C(F)(F)F)cc3Cl)ccc1N(S(=O)(=O)c1ccc(F)cc1)C2C1CC1` (stereo not shown) [Example 8, N-{[3-chloro-5-(trifluoromethyl)pyridin-2-yl]methyl}-2'-cyclopropyl-1'-[(4-fluorophenyl)sulfonyl]-4-oxo-1',2'-dihydrospiro[cyclohexane-1,3'-indole]-5'-carboxamide], with 57.4 nM.

For the compound `COC(=O)c1cccc(S(=O)(=O)N2c3ccc(C(=O)NCc4ccccc4Cl)cc3C3(CCCCC3)C2C2CC2)c1` (stereo not shown) [Example 9, methyl 3-({5'-[(2-chlorobenzyl)carbamoyl]-2'-cyclopropylspiro[cyclohexane-1,3'-indol]-1'(2'H)-yl}sulfonyl)benzoate], the IC50 stood at 2290 nM. Then `O=C(O)c1cccc(S(=O)(=O)N2c3ccc(C(=O)NCc4ccccc4Cl)cc3C3(CCCCC3)C2C2CC2)c1` (stereo not shown) [Example 10, 3-({5'-[(2-chlorobenzyl)carbamoyl]-2'-cyclopropylspiro[cyclohexane-1,3'-indol]-1'(2'H)-yl}sulfonyl)benzoic acid], with 805 nM.
